# Results taken from paper PMC8617944, “Preclinical Pharmacokinetics and Acute Toxicity in Rats of 5-{[(2E)-3-Bromo-3-carboxyprop-2-enoyl]amino}-2-hydroxybenzoic Acid: A Novel 5-Aminosalicylic Acid Derivative with Potent Anti-Inflammatory Activity” (Molecules, 2021).
# “And” between values parts separate entries of the source, which are not always exact repeats. Equal entries are not always repeated. Where two headings read alike, the source gives them in different places.
# Experiment: Distribution of C1 in tissues
# Assay type: in vivo, Wistar rats
# Settings: p.o. 75 mg/kg, 75 mg/kg; for concentration at 10 min / concentration at 30 min / concentration at 90 min / concentration at 3 h / concentration at 6 h: male, Wistar, rat, po
# Procedure: Fifteen male Wistar rats were distributed in five groups (n = 3) and rats were orally administered C1 at a single dose of 75 mg/kg. Subsequently, a group of animals was sacrificed (n = 3) at 10, 30, 90, 180, and 360 min. […] All tissues and organs were weighed on an analytical balance and immediately processed. Each tissue sample was homogenized with saline solution in a 1:3 (wt/v) ratio. The preparation process for analysis was the same as described above for plasma samples [57] (File S8).
# [1] = Small intestine, individual rats
smiles,measurement,setting,value
"O=C(/C=C(/Br)C(=O)O)Nc1ccc(O)c(C(=O)O)c1 [Compound C1, 5-{[(2E)-3-bromo-3-carboxyprop-2-enoyl]amino}-2-hydroxybenzoic acid]","Concentration (µg/mL) at 30 minutes, Rat 1-3","Brain, individual rats",4.1 µg/mL and 3.2 µg/mL
same,"Concentration (µg/mL) at 90 minutes, Rat 1-3","Brain, individual rats",3.3 µg/mL and 3.8 µg/mL
same,"Concentration (µg/mL) at 3 h, Rat 1-3","Brain, individual rats",1.9 µg/mL and 3.2 µg/mL
same,"Concentration (µg/mL) at 6 h, Rat 1-3","Brain, individual rats",3.0 µg/mL
same,"Concentration (µg/mL) at 10 minutes, Rat 1-3","Colon, individual rats",7.5 µg/mL and 9.4 µg/mL
same,"Concentration (µg/mL) at 30 minutes, Rat 1-3","Colon, individual rats",10.6 µg/mL and 8.5 µg/mL and 3.9 µg/mL
same,"Concentration (µg/mL) at 90 minutes, Rat 1-3","Colon, individual rats",7.9 µg/mL and 6.8 µg/mL
same,"Concentration (µg/mL) at 3 h, Rat 1-3","Colon, individual rats",3.6 µg/mL and 6.1 µg/mL and 7.5 µg/mL
same,"Concentration (µg/mL) at 10 minutes, Rat 1-3","Hearth, individual rats",8.0 µg/mL and 1.3 µg/mL and 12.4 µg/mL
same,"Concentration (µg/mL) at 30 minutes, Rat 1-3","Hearth, individual rats",4.4 µg/mL and 2.6 µg/mL
same,"Concentration (µg/mL) at 90 minutes, Rat 1-3","Hearth, individual rats",3.9 µg/mL and 3.0 µg/mL
same,"Concentration (µg/mL) at 3 h, Rat 1-3","Hearth, individual rats",2.2 µg/mL and 4.0 µg/mL
same,"Concentration (µg/mL) at 10 minutes, Rat 1-3","Kidney, individual rats",14.1 µg/mL and 11.2 µg/mL and 22.6 µg/mL
same,"Concentration (µg/mL) at 30 minutes, Rat 1-3","Kidney, individual rats",9.1 µg/mL and 5.4 µg/mL
same,"Concentration (µg/mL) at 90 minutes, Rat 1-3","Kidney, individual rats",6.1 µg/mL and 4.7 µg/mL
same,"Concentration (µg/mL) at 3 h, Rat 1-3","Kidney, individual rats",4.2 µg/mL and 3.3 µg/mL and 6.8 µg/mL
same,"Concentration (µg/mL) at 10 minutes, Rat 1-3","Liver, individual rats",5.1 µg/mL and 4.4 µg/mL
same,"Concentration (µg/mL) at 30 minutes, Rat 1-3","Liver, individual rats",7.2 µg/mL and 6.4 µg/mL
same,"Concentration (µg/mL) at 90 minutes, Rat 1-3","Liver, individual rats",2.6 µg/mL and 5.6 µg/mL and 5.1 µg/mL
same,"Concentration (µg/mL) at 3 h, Rat 1-3","Liver, individual rats",5.0 µg/mL and 2.6 µg/mL and 7.0 µg/mL
same,"Concentration (µg/mL) at 10 minutes, Rat 1-3","Lung, individual rats",23.3 µg/mL and 6.2 µg/mL and 17.7 µg/mL
same,"Concentration (µg/mL) at 30 minutes, Rat 1-3","Lung, individual rats",14.6 µg/mL and 6.7 µg/mL and 10.9 µg/mL
same,"Concentration (µg/mL) at 90 minutes, Rat 1-3","Lung, individual rats",4.0 µg/mL and 13.3 µg/mL and 4.8 µg/mL
same,"Concentration (µg/mL) at 3 h, Rat 1-3","Lung, individual rats",3.9 µg/mL and 7.9 µg/mL and 10.0 µg/mL
same,"Concentration (µg/mL) at 30 minutes, Rat 1-3","Muscle, individual rats",4.0 µg/mL
same,"Concentration (µg/mL) at 90 minutes, Rat 1-3","Muscle, individual rats",3.3 µg/mL and 3.6 µg/mL
same,"Concentration (µg/mL) at 3 h, Rat 1-3","Muscle, individual rats",2.4 µg/mL and 2.6 µg/mL
same,"Concentration (µg/mL) at 30 minutes, Rat 1-3",[1],18.3 µg/mL and 23.9 µg/mL and 4.9 µg/mL
same,"Concentration (µg/mL) at 90 minutes, Rat 1-3",[1],14.1 µg/mL and 18.2 µg/mL
same,"Concentration (µg/mL) at 3 h, Rat 1-3",[1],15.4 µg/mL and 14.9 µg/mL
same,"Concentration (µg/mL) at 10 minutes, Rat 1-3","Spleen, individual rats",22.6 µg/mL and 42.7 µg/mL
same,"Concentration (µg/mL) at 30 minutes, Rat 1-3","Spleen, individual rats",15.6 µg/mL and 15.0 µg/mL
same,"Concentration (µg/mL) at 90 minutes, Rat 1-3","Spleen, individual rats",5.5 µg/mL and 17.1 µg/mL and 12.4 µg/mL
same,"Concentration (µg/mL) at 3 h, Rat 1-3","Spleen, individual rats",10.4 µg/mL and 4.7 µg/mL and 11.1 µg/mL
same,"Concentration (µg/mL) at 10 minutes, Rat 1-3","Stomach, individual rats",24.1 µg/mL and 10.3 µg/mL and 20.5 µg/mL
same,"Concentration (µg/mL) at 30 minutes, Rat 1-3","Stomach, individual rats",13.0 µg/mL and 11.8 µg/mL and 5.8 µg/mL
same,"Concentration (µg/mL) at 90 minutes, Rat 1-3","Stomach, individual rats",10.4 µg/mL and 8.4 µg/mL and 4.8 µg/mL
same,"Concentration (µg/mL) at 3 h, Rat 1-3","Stomach, individual rats",3.7 µg/mL and 8.5 µg/mL and 7.1 µg/mL
same,"Concentration (µg/mL) at 30 minutes, Rat 1-3","Testis, individual rats",4.8 µg/mL and 2.4 µg/mL
same,"Concentration (µg/mL) at 90 minutes, Rat 1-3","Testis, individual rats",2.7 µg/mL and 5.8 µg/mL and 3.5 µg/mL
same,"Concentration (µg/mL) at 3 h, Rat 1-3","Testis, individual rats",2.8 µg/mL and 3.2 µg/mL
same,concentration at 10 min,"brain, Brain, 10 min, n = 3, read-out: Average Concentration",3.7 µg/mL
same,concentration at 30 min,"brain, Brain, 30 min, n = 3, read-out: Average Concentration",3.5 µg/mL
same,concentration at 90 min,"brain, Brain, 90 min, n = 3, read-out: Average Concentration",3.4 µg/mL
same,concentration at 3 h,"brain, Brain, 3 h, n = 3, read-out: Average Concentration",2.8 µg/mL
same,concentration at 6 h,"brain, Brain, 6 h, n = 3, read-out: Average Concentration",2.5 µg/mL
same,concentration at 10 min,"brain, Brain, individual rats, read-out: Concentration (µg/mL) at 10 minutes, Rat 1-3",4.1 µg/mL
same,concentration at 30 min,"brain, Brain, individual rats, read-out: Concentration (µg/mL) at 30 minutes, Rat 1-3",3.2 µg/mL
same,concentration at 90 min,"brain, Brain, individual rats, read-out: Concentration (µg/mL) at 90 minutes, Rat 1-3",3.1 µg/mL
same,concentration at 3 h,"brain, Brain, individual rats, read-out: Concentration (µg/mL) at 3 h, Rat 1-3",3.2 µg/mL
same,concentration at 6 h,"brain, Brain, individual rats, read-out: Concentration (µg/mL) at 6 h, Rat 1-3",2.2 µg/mL
same,concentration at 10 min,"colon, Colon, 10 min, n = 3, read-out: Average Concentration",10.3 µg/mL
same,concentration at 30 min,"colon, Colon, 30 min, n = 3, read-out: Average Concentration",7.6 µg/mL
same,concentration at 90 min,"colon, Colon, 90 min, n = 3, read-out: Average Concentration",6.3 µg/mL
same,concentration at 3 h,"colon, Colon, 3 h, n = 3, read-out: Average Concentration",5.7 µg/mL
same,concentration at 6 h,"colon, Colon, 6 h, n = 3, read-out: Average Concentration",6 µg/mL
same,concentration at 10 min,"colon, Colon, individual rats, read-out: Concentration (µg/mL) at 10 minutes, Rat 1-3",14.2 µg/mL
same,concentration at 90 min,"colon, Colon, individual rats, read-out: Concentration (µg/mL) at 90 minutes, Rat 1-3",4.2 µg/mL
same,concentration at 10 min,"heart, Hearth, 10 min, n = 3, read-out: Average Concentration",7.2 µg/mL
same,concentration at 30 min,"heart, Hearth, 30 min, n = 3, read-out: Average Concentration",3.6 µg/mL
same,concentration at 90 min,"heart, Hearth, 90 min, n = 3, read-out: Average Concentration",3.2 µg/mL
same,concentration at 3 h,"heart, Hearth, 3 h, n = 3, read-out: Average Concentration",2.9 µg/mL
same,concentration at 6 h,"heart, Hearth, 6 h, n = 3, read-out: Average Concentration",2.7 µg/mL
same,concentration at 30 min,"heart, Hearth, individual rats, read-out: Concentration (µg/mL) at 30 minutes, Rat 1-3",3.8 µg/mL
same,concentration at 90 min,"heart, Hearth, individual rats, read-out: Concentration (µg/mL) at 90 minutes, Rat 1-3",2.7 µg/mL
same,concentration at 3 h,"heart, Hearth, individual rats, read-out: Concentration (µg/mL) at 3 h, Rat 1-3",2.5 µg/mL
